Laboratory results from patent US20220088102A1, “CROTON LECHLERI COMPOSITIONS AND THEIR USE IN THE TREATMENT OF CYSTIC FIBROSIS” (priority 2020, published 2022).
Values after ≈ are worked out from the molar mass of the structure shown. Read-outs that look alike come from different tables or passages of the source.

Assays:
[1] = Log P analysis (partition coefficient, water and n-Octanol)
Text: (§1) All reference to skin includes references to epithelial skin and epithelial layer of the lungs, nose, mouth and throat. IVPT is a flux measurement that is common to those skilled in the art to evaluate topical drugs inclusive to topical delivery to the lungs, nose, mouth and throat.
Log P is an assessment of a molecule's lipophilicity, indicating how readily an analyte can partition between aqueous and organic phases. […] To reach high systemic levels, a topical drug must be permeable enough, which is defined as lipophilic enough, to partition into the lipid bilayer of the skin, but, not so lipophilic that once it is in the skin bilayer it will stay sequestered there. Lipophilicity plays a major role in determining where drugs are distributed within the body after absorption into tissues and, as a consequence, in how rapidly they are metabolized and excreted.
The Log P value is a constant defined in the following manner: Log P=log 10 (Partition Coefficient) Partition Coefficient, P=[organic]/[aqueous] Where [ ] indicates the concentration of solute in the organic and aqueous partition. […] Although log P is a constant, its value is dependent on the choice of the organic partitioning solvent and, to a lesser degree, on the conditions of measurement.

DNA of the cells = conditions: Chen 1994; cited from earlier work
[2] = In vitro Permeation Test (IVPT), Franz diffusion cell, Strat-M membranes
Text: as §1

[3] = system: methicillin-susceptible Staphylococcus aureus (MSSA) strains; experiment: In vitro MIC and MBC assay, strain panel (Example 3); type: cell-based
Text: (§2) Measures included the minimum inhibitory concentration (MIC) which is the lowest concentration of AB-101 that prevents visible growth of the bacterium or pathogen, and minimum bactericidal concentration (MBC) which is the lowest concentration of an antibacterial agent required to kill a bacterium.

[4] = system: methicillin-resistant Staphylococcus aureus (MRSA) strains; experiment: as above; type: cell-based; conditions: MupirocinS, MRSA (Table 13)
Text: as §2

[5] = component permeating from AB-101 100% Lot 1
[6] = component permeating from AB-101 100% Lot X
[7] = strain ATCC 29213, QC control (Table 13)
[8] = strain CDC 461, MupirocinS, MSSA (Table 13)
[9] = strain CDC 463, MupirocinS, MSSA (Table 13)

`Oc1cc(O)c2c(c1)O[C@H](c1cc(O)c(O)c(O)c1)[C@H](O)C2` [Epigallocatcchin] gave a LogP ([1]; component of AB-101, 100%, Batch 0) of −0.79, a LogP ([1]; component of AB-101, 100%, Batch 1) of 0.27 and a LogP ([1]; component of AB-101, 100%, Batch 2) of 0.86. For the same molecule, the LogP ([1]; component of AB-101, 100%, Batch X) was 1.82, the LogP ([1]; component of AB-101 Lyophilized & Resuspended, Batch 0) was 1.20 and the LogP ([1]; component of AB-101 Lyophilized & Resuspended, Batch 1) was −0.11. For the same molecule, the LogP ([1]; component of AB-101 Lyophilized & Resuspended, Batch 2) was −1.71 and the LogP ([1]; component of AB-101 Lyophilized & Resuspended, Batch X) was −0.55.

In the case of `Oc1cc(O)c2c(c1)O[C@H](c1cc(O)c(O)c(O)c1)[C@H](O)C2` [Epigallocatechin, epigallocatechin], the “effect on cell proliferation” value (DNA of the cells) is listed as “slightly stimulating to cell proliferation”, the “Flux (J)” value [2, 5] is listed as 503.51 ug/cm^2/hr and the “Flux (J)” value [2, 6] is listed as 57.09 ug/cm^2/hr.

In the case of `Oc1cc(O)c2c(c1)O[C@H](c1cc(O)c(O)c(O)c1)[C@@H](O)C2` [Gallocatechin, gallocatechin], the “effect on cell proliferation” value (DNA of the cells) is given as “slightly stimulating to cell proliferation”, the “Flux (J)” value [2, 5] is given as 18.25 ug/cm^2/hr and the “Flux (J)” value [2, 6] is given as 4.33 ug/cm^2/hr.

With `COc1cccc(OC)c1C(=O)N[C@@H]1C(=O)N2[C@@H]1SC(C)(C)[C@@H]2C(=O)O` [Methicillin] the “MIC” value ([3]; strain 1674606, MupirocinR, MSSA (Table 13)) was 0.002 to 0.008 ng/mL, the “MIC” value ([3]; strain 1674608, MupirocinR, MSSA (Table 13)) was 0.002 to 0.004 ng/mL and the “MIC” value [3, 7] was 0.001 to 0.002 ng/mL. The “MIC” value [3, 8] was 0.004 to 0.008 ng/mL, the “MIC” value [3, 9] was 0.008 to 0.016 ng/mL and the “MIC” value ([3]; strain CDC 485, MupirocinS, MSSA (Table 13)) was 0.002 to 0.004 ng/mL. The “MIC” value ([4]; strain CDC 480) was 32 to 64 pg/mL, the “MIC” value ([4]; strain CDC 481) was 16 to 32 pg/mL and the “MIC” value ([4]; strain CDC 482) was 8 to 32 pg/mL.

In the case of `C/C(=C\C(=O)OCCCCCCCCC(=O)O)C[C@@H]1OC[C@H](C[C@@H]2O[C@H]2[C@@H](C)[C@H](C)O)[C@@H](O)[C@H]1O` [Mupirocin], the MIC ([3]; Staphylococcus aureus, MSSA, strain 1674606, MupirocinR, MSSA, read-out: MIC) is reported as over 256000 ng/mL, the MIC ([3]; Staphylococcus aureus, MSSA, strain 1674608, MupirocinR, MSSA, read-out: MIC) is reported as over 256000 ng/mL and the MIC ([3]; Staphylococcus aureus, MSSA, strain CDC 463, MupirocinS, MSSA, read-out: MIC) is reported as 250 to 500 ng/mL (≈ 499 to 999 nM). The MIC ([3]; Staphylococcus aureus, MSSA, strain CDC 484, MupirocinS, MSSA, read-out: MIC) was at most 250 ng/mL, the MIC ([3]; Staphylococcus aureus, MSSA, strain CDC 485, MupirocinS, MSSA, read-out: MIC) was at most 250 ng/mL and the “MIC” value [3, 7] was at most 0.00025 to 0.0005 ng/mL. For the same molecule, the “MIC” value [3, 8] was at most 0.00025 to 0.001 ng/mL, the “MIC” value [3, 9] was at most 0.00025 to 0.0005 ng/mL and the “MIC” value ([4]; strain CDC 227) was at most 0.25 to 0.5 pg/mL.
